In patent US6737383B1, “Herbicidal oxadiazolidines” (priority 1999, dated 2004):

Columns and labels:
rice = assay: Test B flood test rice; type: in vivo, Oryza sativa; conditions: for Plant response rating, Rice (0 to 10 scale, 0 is no effect, 10 is complete control) / Rice plant response rating (0 to 10 scale, 0 is no effect, 10 is complete control): visual evaluation after twelve to sixteen days; for Rice plant response rating (0 to 10 scale, 0 is no effect, 10 is complete control): under heading Pre-emergence
Summary of the method: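 Plants were grown to the 2-leaf stage before treatment with test chemical, then held in a greenhouse for twelve to sixteen days. Injury was visually rated against untreated controls on a 0–10 scale, where 0 is no effect and 10 is complete control.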

corn = assay: Test B pre/postemergence corn; type: in vivo, Zea mays
Summary of the method: (§1)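 Response is a visual 0-to-10 score relative to untreated plants, where 0 means no effect and 10 means complete control, taken twelve to sixteen days after application. Treatments went onto soil at planting and onto foliage of 1- to 4-leaf plants, using a surfactant-containing non-phytotoxic solvent.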

crabgrass = assay: Test B pre/postemergence crabgrass; type: in vivo, Digitaria sanguinalis
Summary of the method: as §1

sugar beet = assay: Test B pre/postemergence sugar beet; type: in vivo, Beta vulgaris
Summary of the method: as §1

[1] = Rate 62 g/ha, flood test species, Pre-emergence
[2] = Rate 125 g/ha, flood test species
[3] = Rate 250 g/ha, Pre-emergence (flood test species), scale 0 to 10, 0 is no effect, 10 is complete control
[4] = Rate 500 g/ha, Pre-emergence section of Table B, 0 to 10 scale (0 no effect, 10 complete control)
[5] = Postemergence, Rate 62 g/ha, scale 0 to 10, 0 is no effect, 10 is complete control
[6] = Postemergence, Rate 125 g/ha, scale of 0 to 10 where 0 is no effect and 10 is complete control
[7] = Postemergence, Rate 250 g/ha, scale of 0 to 10, 0 is no effect, 10 is complete control
[8] = Postemergence, Rate 500 g/ha, scale of 0 to 10 where 0 is no effect and 10 is complete control
[9] = Preemergence, Rate 62 g/ha, scale 0 to 10 (0 no effect, 10 complete control)
[10] = Preemergence, Rate 125 g/ha, scale of 0 to 10 where 0 is no effect and 10 is complete control
[11] = Preemergence, Rate 250 g/ha, scale 0 to 10 (0 no effect, 10 complete control)
[12] = Preemergence, Rate 500 g/ha, scale of 0 to 10 where 0 is no effect and 10 is complete control
[13] = Preemergence, Rate 62 g/ha, scale of 0 to 10 where 0 is no effect and 10 is complete control
[14] = Preemergence, Rate 125 g/ha, 0 is no effect, 10 is complete control
[15] = Preemergence, Rate 250 g/ha, scale 0 to 10, 0 is no effect, 10 is complete control
[16] = Rate 62 g/ha, Postemergence, scale of 0 to 10 where 0 is no effect and 10 is complete control
[17] = Rate 125 g/ha, Postemergence, scale 0 to 10
[18] = Rate 500 g/ha, Postemergence, scale 0 to 10
[19] = Postemergence, Rate 125 g/ha, scale 0 to 10, 0 is no effect, 10 is complete control
[20] = Postemergence, Rate 250 g/ha, scale 0 to 10
[21] = Postemergence, Rate 500 g/ha, scale 0 to 10, 0 is no effect, 10 is complete control
[22] = Preemergence, Rate 125 g/ha, scale 0 to 10, 0 is no effect, 10 is complete control
[23] = Preemergence, Rate 500 g/ha, scale 0 to 10, 0 is no effect, 10 is complete control
[24] = Rate 62 g/ha, Postemergence, scale 0 to 10, 0 no effect, 10 complete control
[25] = Postemergence, Rate 250 g/ha, scale 0 to 10, 0 no effect, 10 complete control
[26] = Preemergence, Rate 62 g/ha, scale 0 to 10, 0 is no effect, 10 is complete control
[27] = Preemergence, Rate 125 g/ha, scale 0 to 10 (0 no effect, 10 complete control)
[28] = Preemergence, Rate 250 g/ha, scale of 0 to 10 where 0 is no effect and 10 is complete control
[29] = Preemergence, Rate 500 g/ha, scale 0 (no effect) to 10 (complete control)
[30] = Rate 125 g/ha, Postemergence, scale 0 to 10, 0 no effect, 10 complete control
[31] = Rate 500 g/ha, Postemergence, 0 to 10 scale (0 no effect, 10 complete control)
[32] = Rate 500 g/ha, Postemergence, scale 0 to 10, 0 is no effect, 10 is complete control

CCOC(=O)CC(C(=O)OCC)n1c(=O)on(C(=O)N(c2ccc(F)cc2)C(C)C)c1=O (centres unmarked) [Compound 615]
Plant response rating, Rice (0 to 10 scale, 0 is no effect, 10 is complete control) (rice; [1]): 0 | Rice plant response rating (0 to 10 scale, 0 is no effect, 10 is complete control) (rice; [2]): 0 | Rice plant response rating (rice; [3]): 0 | Rice plant response rating (rice; [4]): 0 | Plant response rating, Corn (corn; [5]): 0 | Plant response rating, Corn (corn; [6]): 0 | Corn plant response rating (corn; [7]): 0 | Plant response rating, Corn (corn; [8]): 0 | Corn plant response rating (corn; [9]): 0 | Corn plant response rating (corn; [10]): 0 | Plant response rating, Corn (corn; [11]): 0 | Plant response rating, Corn (corn; [12]): 0 | Plant response rating, Crabgrass (crabgrass; [5]): 0 | Plant response rating, Crabgrass (crabgrass; [6]): 0 | Crabgrass plant response rating (crabgrass; [7]): 4 | Crabgrass plant response rating (crabgrass; [9]): 0 | Crabgrass plant response rating (crabgrass; [10]): 0 | Plant response rating, Crabgrass (crabgrass; [11]): 0 | Plant response rating, Crabgrass (crabgrass; [12]): 0 | Plant response rating, Sugarbeets (sugar beet; [5]): 0 | Plant response rating, Sugarbeets (sugar beet; [6]): 0 | Sugarbeets plant response rating (sugar beet; [7]): 0 | Plant response rating, Sugarbeets (sugar beet; [8]): 0 | Sugarbeets plant response rating (sugar beet; [9]): 0 | Sugarbeets plant response rating (sugar beet; [10]): 0 | Plant response rating, Sugarbeets (sugar beet; [11]): 0 | Plant response rating, Sugarbeets (sugar beet; [12]): 6

CCOC(Cn1c(=O)on(C(=O)N(c2ccc(F)cc2)C(C)C)c1=O)OCC [Compound 629]
Plant response rating, Rice (0 to 10 scale, 0 is no effect, 10 is complete control) (rice; [1]): 0 | Rice plant response rating (0 to 10 scale, 0 is no effect, 10 is complete control) (rice; [2]): 0 | Rice plant response rating (rice; [3]): 0 | Rice plant response rating (rice; [4]): 0 | Plant response rating, Corn (corn; [5]): 3 | Plant response rating, Corn (corn; [6]): 3 | Corn plant response rating (corn; [7]): 4 | Plant response rating, Corn (corn; [8]): 6 | Corn plant response rating (corn; [9]): 1 | Corn plant response rating (corn; [10]): 2 | Plant response rating, Corn (corn; [11]): 6 | Plant response rating, Corn (corn; [12]): 8 | Plant response rating, Crabgrass (crabgrass; [5]): 1 | Plant response rating, Crabgrass (crabgrass; [6]): 3 | Crabgrass plant response rating (crabgrass; [7]): 8 | Plant response rating, Crabgrass (crabgrass; [8]): 9 | Crabgrass plant response rating (crabgrass; [9]): 7 | Crabgrass plant response rating (crabgrass; [10]): 9 | Plant response rating, Crabgrass (crabgrass; [11]): 9 | Plant response rating, Crabgrass (crabgrass; [12]): 10 | Plant response rating, Sugarbeets (sugar beet; [5]): 0 | Plant response rating, Sugarbeets (sugar beet; [6]): 0 | Sugarbeets plant response rating (sugar beet; [7]): 0 | Sugarbeets plant response rating (sugar beet; [9]): 2 | Plant response rating, Sugarbeets (sugar beet; [11]): 3 | Plant response rating, Sugarbeets (sugar beet; [12]): 7

Cc1nc(C)c(-n2c(=O)on(C(=O)N(c3ccccc3)C(C)C)c2=O)s1 [Compound 197]
Rice plant response rating (rice; Rate 62 g/ha, headed Pre-emergence (flood test species), scale 0 to 10 (0 no effect, 10 complete control)): 0 | Rice plant response rating (rice; Rate 125 g/ha, Pre-emergence, flood test species, scale 0 to 10 where 0 is no effect and 10 is complete control): 0 | Rice plant response rating (rice; Rate 250 g/ha, Pre-emergence, flood-test species, scale 0 to 10, 0 is no effect, 10 is complete control): 0 | Plant response rating, Rice (rice; Rate 500 g/ha, headed Pre-emergence (flood test species), scale 0 to 10 (0 no effect, 10 complete control)): 0 | Corn plant response rating (corn; [13]): 0 | Corn plant response rating (0 to 10 scale) (corn; [14]): 0 | Corn plant response rating (corn; [15]): 0 | Plant response rating, Corn (corn; [12]): 0 | Corn plant response rating (corn; [16]): 0 | Corn plant response rating (corn; [17]): 0 | Plant response rating (0 to 10; 0 is no effect, 10 is complete control), Corn (corn; Rate 250 g/ha, Postemergence): 0 | Corn plant response rating (corn; [18]): 0 | Crabgrass plant response rating (crabgrass; [13]): 0 | Crabgrass plant response rating (0 to 10 scale) (crabgrass; [14]): 0 | Crabgrass plant response rating (crabgrass; [15]): 0 | Plant response rating, Crabgrass (crabgrass; [12]): 3 | Crabgrass plant response rating (crabgrass; [16]): 0 | Crabgrass plant response rating (crabgrass; [17]): 0 | Plant response rating (0 to 10; 0 is no effect, 10 is complete control), Crabgrass (crabgrass; Rate 250 g/ha, Postemergence): 0 | Crabgrass plant response rating (crabgrass; [18]): 2 | Sugarbeets plant response rating (sugar beet; [13]): 0 | Sugarbeets plant response rating (0 to 10 scale) (sugar beet; [14]): 0 | Sugarbeets plant response rating (sugar beet; [15]): 0 | Plant response rating, Sugarbeets (sugar beet; [12]): 0 | Sugarbeets plant response rating (sugar beet; [16]): 0 | Sugarbeets plant response rating (sugar beet; [17]): 0 | Plant response rating (0 to 10; 0 is no effect, 10 is complete control), Sugarbeets (sugar beet; Rate 250 g/ha, Postemergence): 0 | Sugarbeets plant response rating (sugar beet; [18]): 0

CC(C)C(=O)Cn1c(=O)on(C(=O)N(c2ccc(F)cc2F)C(C)C)c1=O [Compound 486]
Plant response rating, Rice (0 to 10 scale, 0 is no effect, 10 is complete control) (rice; [1]): 0 | Rice plant response rating (0 to 10 scale, 0 is no effect, 10 is complete control) (rice; [2]): 0 | Rice plant response rating (rice; [3]): 0 | Rice plant response rating (rice; [4]): 0 | Corn plant response rating (corn; [19]): 0 | Corn plant response rating (corn; [20]): 0 | Plant response rating, Corn (corn; [21]): 3 | Plant response rating, Corn (corn; [13]): 0 | Corn plant response rating (corn; [22]): 0 | Corn plant response rating (corn; [15]): 5 | Corn plant response rating (corn; [23]): 8 | Corn plant response rating (corn; [24]): 0 | Crabgrass plant response rating (crabgrass; [19]): 3 | Crabgrass plant response rating (crabgrass; [20]): 5 | Plant response rating, Crabgrass (crabgrass; [21]): 9 | Plant response rating, Crabgrass (crabgrass; [13]): 8 | Crabgrass plant response rating (crabgrass; [22]): 9 | Crabgrass plant response rating (crabgrass; [15]): 10 | Crabgrass plant response rating (crabgrass; [23]): 10 | Crabgrass plant response rating (crabgrass; [24]): 0 | Sugarbeets plant response rating (sugar beet; [19]): 0 | Plant response rating, Sugarbeets (sugar beet; [21]): 2 | Plant response rating, Sugarbeets (sugar beet; [13]): 0 | Sugarbeets plant response rating (sugar beet; [22]): 0 | Sugarbeets plant response rating (sugar beet; [15]): 4 | Sugarbeets plant response rating (sugar beet; [23]): 6 | Sugarbeets plant response rating (sugar beet; [24]): 0

CC(C)N(C(=O)n1oc(=O)n(-c2ccc(Cl)cc2C(F)(F)F)c1=O)c1ccc(F)cc1 [Compound 20]
Rice plant response rating (rice; [5]): 0 | Rice plant response rating (rice; Rate 125 g/ha, Postemergence section (flood test species), scale 0 to 10, 0 no effect, 10 complete control): 0 | Rice plant response rating (rice; Rate 500 g/ha, Postemergence section of Table B, 0 to 10 scale (0 no effect, 10 complete control)): 2 | Rice plant response rating (rice; flood test, listed under Postemergence, Rate 250 g/ha, scale 0 to 10, 0 no effect, 10 complete control): 0 | Corn plant response rating (corn; [5]): 0 | Corn plant response rating (corn; [25]): 0 | Plant response rating, Corn (corn; [26]): 0 | Plant response rating, Corn (corn; [27]): 0 | Plant response rating, Corn (corn; [28]): 0 | Corn plant response rating (corn; [29]): 0 | Corn plant response rating (corn; [30]): 0 | Corn plant response rating (corn; [31]): 0 | Crabgrass plant response rating (crabgrass; [5]): 0 | Crabgrass plant response rating (crabgrass; [25]): 3 | Plant response rating, Crabgrass (crabgrass; [26]): 1 | Plant response rating, Crabgrass (crabgrass; [27]): 2 | Plant response rating, Crabgrass (crabgrass; [28]): 6 | Crabgrass plant response rating (crabgrass; [29]): 7 | Crabgrass plant response rating (crabgrass; [30]): 0 | Crabgrass plant response rating (crabgrass; [31]): 7 | Sugarbeets plant response rating (sugar beet; [5]): 0 | Plant response rating, Sugarbeets (sugar beet; [26]): 0 | Plant response rating, Sugarbeets (sugar beet; [27]): 0 | Plant response rating, Sugarbeets (sugar beet; [28]): 2 | Sugarbeets plant response rating (sugar beet; [29]): 7 | Sugarbeets plant response rating (sugar beet; [30]): 0

C=C(Cn1c(=O)on(C(=O)N(c2ccccc2)C(C)C)c1=O)C(C)C [Compound 649]
Plant response rating, Rice (0 to 10 scale, 0 is no effect, 10 is complete control) (rice; [1]): 0 | Rice plant response rating (0 to 10 scale, 0 is no effect, 10 is complete control) (rice; [2]): 0 | Rice plant response rating (rice; [3]): 0 | Rice plant response rating (rice; [4]): 0 | Plant response rating, Corn (corn; [5]): 0 | Corn plant response rating (corn; [6]): 0 | Corn plant response rating (corn; [7]): 0 | Corn plant response rating (corn; [13]): 0 | Corn plant response rating (corn; [10]): 0 | Plant response rating, Corn (corn; [11]): 0 | Plant response rating, Corn (corn; [12]): 0 | Corn plant response rating (corn; [32]): 0 | Plant response rating, Crabgrass (crabgrass; [5]): 0 | Crabgrass plant response rating (crabgrass; [6]): 2 | Crabgrass plant response rating (crabgrass; [13]): 0 | Crabgrass plant response rating (crabgrass; [10]): 1 | Plant response rating, Crabgrass (crabgrass; [11]): 5 | Plant response rating, Crabgrass (crabgrass; [12]): 9 | Plant response rating, Sugarbeets (sugar beet; [5]): 0 | Sugarbeets plant response rating (sugar beet; [6]): 0 | Sugarbeets plant response rating (sugar beet; [10]): 0 | Plant response rating, Sugarbeets (sugar beet; [11]): 0 | Plant response rating, Sugarbeets (sugar beet; [12]): 0 | Sugarbeets plant response rating (sugar beet; [32]): 0
